As a reminder, the IC50 is the concentration at which inhibition is half-maximal. The low end stands for higher potency, the high end for lower potency.

This test concerns P. falciparum 3D7 growth, pLDH absorbance. Kind of test: P. falciparum 3D7 growth inhibition, dose response, strain 3D7 (AID 2305).

Compound `Nc1ncc(-c2ccc(S(=O)(=O)Nc3ccc(C(=O)N[C@@H](CCC(=O)O)C(=O)O)cc3)cc2)c(=O)[nH]1` showed an IC50 of 800 nM.
Then `COc1ccc2c(NN=Cc3ccc([N+](=O)[O-])cc3)ccnc2c1`, with 340 nM; and `COc1ccc2ncc(C#N)c(CCN3CCC(NCc4ccc5c(c4)OCCO5)CC3)c2c1`, with 910 nM; and `CC1(C)C(=O)Nc2ccccc2N1C(=O)CN1CCN(c2ccccc2O)CC1`, with 1070 nM.
For `O=C1CN(C(=O)CCC2CCCC2)C(c2ccc(F)cc2)c2cc(F)ccc2N1` (stereo not drawn) the value was 170 nM.
Turning to `COc1ccc(-c2ccc3c(-c4ccc(F)cc4)cnc(N)c3c2)cn1`, the IC50 came out at 390 nM.
Then `O=c1cc(NCCCNCc2cc(C(F)(F)F)ccc2F)[nH]c2ccccc12`, with 830 nM; and `Cc1ccnc(NC(c2ccc(Cl)c([N+](=O)[O-])c2)c2ccc3cccnc3c2O)c1` (stereo not drawn), with 930 nM.
For `Fc1ccc(Nc2ccnc3cc(-c4ccc(CN5CCOCC5)o4)ccc23)c(Cl)c1` the value was 760 nM; for `CN1CCN(c2cc3c(cc2Cl)CCN3C(=O)Cc2ccc(Cl)c(NC(=O)Nc3cccc(C#N)c3)c2)CC1`, 640 nM; for `O=C(/C=C/c1ccc(Cl)c(Cl)c1)N1CCC(CN2CCC(c3c[nH]c4ncccc34)CC2)CC1`, 1090 nM.
`CC(=O)Nc1cccc(NC(=O)CSc2ccc(-c3nc4ccccc4[nH]3)cn2)c1` gave a half-inhibitory concentration (IC50) of 560 nM.
Then `CC(=O)N/N=C/[C@H](CCc1ccccc1)NC(=O)[C@H](CC(C)C)NC(=O)c1ccc(OCCN2CCOCC2)cc1`, with 220 nM; and `CC(C)NCc1ccc(-c2ccc(NC(=O)c3cccc(C#N)c3)cc2)cc1`, with 650 nM.
For `CCN(CC)CCCC(C)Nc1c2ccccc2nc2ccc3ccccc3c12` (stereo not drawn) the value was 1040 nM; for `CCCOc1cc(O)c(-c2n[nH]c(C)c2Oc2ccccc2)cc1CC`, 1070 nM; for `CS(=O)(=O)NCCCNCc1ccc(-c2ccc(-c3nc4ccc(F)cc4[nH]3)s2)cc1`, 810 nM.
For `CCC(CC)n1cc2c(ccc3nc(N)nc(N)c32)n1` the value was 80 nM; for `Oc1ccc2c(CNC3CCCCC3)c(O)ccc2c1CNC1CCCCC1`, 40 nM; for `COc1ccc(C2CCN(CCCCNC(=O)c3ccc(NC(=O)c4ccc(Cl)cc4)cc3)CC2)cc1Cl`, 840 nM.
`c1cc(CNCCc2ccncc2)cc(-c2csc(-c3nc4ccccc4[nH]3)c2)c1`: the IC50 is 260 nM.
Then `COc1ccc(C2CCN(CCN3CCC(NC(=O)c4cccc(-c5ccncc5)c4)CC3)CC2)c(OC)c1`, with 800 nM.
Then `Oc1ccc(CC2CCCN(c3nc(NCCCOc4ccccc4-c4ccccc4)nc(N4CCNCC4)n3)C2)cc1` (stereo not drawn), with 920 nM; and `CCNS(=O)(=O)c1ccc(Oc2ccc([N+](=O)[O-])cc2)cc1`, with 170 nM.
Regarding `CCN(CC)C(=O)c1cccc(/C=C/c2ccc(-c3c(C)[nH]c(C)c(Cl)c3=O)cc2)c1`, the IC50 was determined as 260 nM.
`Cc1ccc(Nc2ccnc(Nc3ccc4c(c3)CS(=O)(=O)C4)n2)cc1O` displayed an IC50 of 720 nM.
Then `CN1CCCN(Cc2cccc(-c3cccc(NC(=O)c4cccc(Cl)c4)c3)c2)CC1`, with 890 nM.
Then `Cc1cc(=O)c(-c2ccc(S(=O)(=O)c3ccc(Cl)cc3)cc2)c(C)[nH]1`, with 880 nM; and `Cc1cc2ccc(-c3cccc(CN)c3)cc2nc1N`, with 760 nM.
Turning to `Cc1[nH]c(C)c(-c2ccc(-c3ccccc3F)nc2)c(=O)c1Br`, the IC50 amounted to 400 nM.
For `COc1ccc2nccc([C@@H](O)CN3CCC(NCc4cc5cccc6c5n(c4=O)CCC6)CC3)c2c1` the value was 860 nM.
Then `O=C(NCCCNc1nc2ccccc2[nH]1)c1cccc(OC(F)(F)F)c1`, with 570 nM; and `Cn1cncc1C(=O)Nc1ccc(-c2cccc(-c3nc4ccc(F)cc4[nH]3)c2)cc1`, with 820 nM; and `O=C(Nc1cccc(CN2CCCN(Cc3cccc(O)c3)CC2)c1)c1ccc2ccccc2c1`, with 790 nM.
Then `c1ccc(C(OCCC2CCN(Cc3cccnc3)CC2)c2ccccc2)cc1`, with 820 nM; and `O=C(NC1CC1)c1ccc(N2CCOc3ccc(Cl)cc32)s1`, with 800 nM.
As to `CN(Cc1ccc(C#N)cc1)C1CCN(c2cc(NC(=O)c3ccc(F)cc3)ccn2)CC1`, the IC50 worked out at 1430 nM.
Then `C=C(C)C1CC=C(CN2CCC(N3CCc4cc(NC(=O)c5cc(C)on5)ccc43)C2)CC1` (stereo not drawn), with 710 nM.
Then `CC1CC(C)CN(CCCNc2ccc(C(=O)Nc3ccc(C(F)(F)F)cc3)cc2[N+](=O)[O-])C1` (stereo not drawn), with 200 nM; and `COC(=O)C(Cc1ccccc1)NC(=O)NC1CCN(c2ccnc(Nc3ccc(F)cc3)n2)C1` (stereo not drawn), with 1090 nM.
The compound `CCc1cccc(C)c1-n1nc(-c2cc(C(C)(C)C)oc2C)cc1N` registered an IC50 of 660 nM.
Then `COc1ccccc1NC(=O)Nc1ccc(-c2ccc(-c3nc4c(C)cccc4[nH]3)s2)cc1`, with 160 nM.
`COc1ccc(-c2ccc(CNC(=O)c3ccc(Cl)cc3)c(F)c2)cc1CN1CCCN(C)CC1` gave an IC50 of 710 nM.
Then `CC(C)C[C@@H]1C(=O)N[C@H](C2Cc3ccccc3C2)C(=O)N1[C@@H](C(=O)O)c1ccc(F)cc1F`, with 840 nM; and `O=C(Nc1cccc(F)c1)c1ccc(C(=O)NC2CCN(CC3CCCCC3)C2)cc1` (stereo not drawn), with 930 nM.
`COc1ccc(-c2cccc(NC(=O)c3cccc(C#N)c3)c2)cc1CN1CCN(C)CC1` had an IC50 of 930 nM.
For `COc1ccc(CNCc2ccc(-c3cccc(-c4nc5ccc(F)cc5[nH]4)c3)cc2)cc1` the value was 200 nM.
Then `COc1cccc2c(NCc3ccccc3)nc(NCCCN3CCCCC3C)nc12` (stereo not drawn), with 910 nM.
Then `COc1ccc(-c2cc(C(=O)N3CCc4ccccc43)c3ccccc3n2)cc1OC`, with 330 nM; and `COc1ccc(NC(=O)/C=C/c2ccccc2Cl)cc1OCCN1CCC(N2CCCCC2)CC1`, with 900 nM.
Compound `OC(CNCc1ccccc1OCc1ccccc1)c1cccc(C(F)(F)F)c1` (stereo not drawn) came in with an IC50 of 360 nM.
Then `Cc1ccc(NC(=O)c2ccc(Cl)cc2)cc1-c1ccc(C(=O)Nc2ccncc2)cc1`, with 780 nM; and `CO/C(=C\C=C\c1cc2cc(Cl)c(Cl)cc2[nH]1)C(=O)NCCCN(C)CCN(C)c1ccccc1`, with 830 nM; and `O=C(Nc1cccc(C(F)(F)F)c1)c1cccc2[nH]c(C(F)(F)F)nc12`, with 640 nM.
Then `OC(CNc1ccnc(Nc2cccc(Cl)c2)n1)c1ccc(C(F)(F)F)cc1` (stereo not drawn), with 770 nM; and `COc1cc2nccc(Nc3ccc4c(cnn4Cc4cccc(F)c4)c3)c2cc1OC`, with 240 nM; and `COc1ccc2ncc(F)c(CCN3CCC(NCc4cc(OC)c5c(c4)OCCO5)CC3)c2n1`, with 570 nM.
For `O=C(/C=C/c1ccc(Cl)c(Cl)c1)N1CCC(CCCN2CCC(c3c[nH]c4ccccc34)CC2)CC1` the value was 710 nM; for `COC1(C)Oc2ccc3cccc([N+](=O)[O-])c3c2C1=O` (stereo not drawn), 630 nM.
The compound `O=c1cc(NCCCNCc2cc(C(F)(F)F)ccc2Cl)[nH]c2ccccc12` displayed an IC50 of 1020 nM.
For `Nc1nc(N)c2c(Cl)c(N3CCOCC3)ccc2n1` the value was 80 nM.
The compound `Cc1ccccc1C1CCN(C2CCC(NC(=O)c3ccc(-c4cccs4)s3)CC2)CC1` (stereo not drawn) yielded an IC50 of 1030 nM.
For `CN(CCN1CCC(c2c[nH]c3ccccc23)CC1)c1ccc(-c2nc3cc(Cl)c(Cl)cc3[nH]2)cc1` the value was 120 nM.
Then `CO/C(=C\C=C\c1cc2cc(Cl)c(Cl)cc2[nH]1)C(=O)NCC(C)(C)CN(C)C`, with 1160 nM; and `CN(CCCNC(=S)NC12CC3CC(CC(C3)C1)C2)CCCNc1ccnc2cc(Cl)ccc12`, with 120 nM; and `O=C(/C=C/c1ccc(Cl)c(Cl)c1)NCCCCCN1CC[C@H](c2c[nH]c3ccccc23)[C@H](O)C1`, with 820 nM.
For `COc1cccc(OC(C)(C)c2nc(N[C@@H](C)c3ccccc3)c3cn[nH]c3n2)c1` the value was 970 nM; for `CCn1c(Sc2ccc([N+](=O)[O-])c(C#N)c2)nnc1-c1ccc(Cl)cc1`, 1000 nM.
`O=c1cc(NCCCNCc2cc3ccc(Br)cc3s2)[nH]c2ccccc12` yielded an IC50 of 990 nM. This IC50 and that of the compound before are within 1.5-fold of each other.
Then `COCCNCc1cccc(-c2ccc3nccc(Nc4cc(O)ccc4C)c3c2)c1`, with 750 nM; and `O=C(Nc1ccc(Br)cc1)N1CCC(n2c(-c3ccccc3)nc3cccnc32)CC1`, with 760 nM.
On to `COC(=O)c1cccc(CNCc2cccc(-c3cccc(-c4nc5c(C)cccc5[nH]4)c3)c2)c1`, for which the IC50 came out at 190 nM. Compared with the last compound, the IC50 is about 4-fold lower.
For `COc1ccc(CCNc2nc(N)c3cc(OC)c(OC)cc3n2)cc1` the value was 1120 nM; for `CC(=O)N1c2ccccc2C(C)=CC1(C)C`, 940 nM; for `CCCNC(=O)C1CCN(C(c2ccc(Cl)cc2)c2ccc(Cl)cc2)CC1`, 480 nM.
Then `CN(C)c1ccc(CN2CCCCC(NC(=O)c3cc(-c4ccccc4Cl)cs3)C2)cc1` (stereo not drawn), with 1060 nM; and `CNc1ccc(CNCc2ccc(-c3ccc(-c4nc5c(C)cccc5[nH]4)cc3)cc2)cc1`, with 320 nM; and `CC(=O)Nc1ncc(C(=O)Nc2cccc(-c3cccc(-c4nc5c(C)cccc5[nH]4)c3)c2)s1`, with 350 nM.
Then `c1ccc(COc2ccc(COc3ccc(Cn4ccnc4)cc3)cc2)cc1`, with 950 nM.
For the compound `CN1CCCN(Cc2ccc(-c3cccc(NC(=O)c4cccc(Cl)c4)c3)cc2)CC1`, the IC50 was 840 nM.
For `Cc1noc(C)c1-c1ccc2c(Nc3ccc(C#N)cc3)c(C(N)=O)cnc2c1`, the 50% inhibitory concentration (IC50) is 750 nM.
Then `COc1cc(F)c2nccc([C@@H](O)CN3CC[C@H](NCc4ccc5c(n4)NC(=O)CS5)[C@H](F)C3)c2c1`, with 1170 nM; and `O=C(Cc1cnc[nH]1)Nc1ccc(-c2ccc(-c3nc4ccc(C(F)(F)F)cc4[nH]3)s2)cc1`, with 660 nM; and `CCOc1cc(C(=O)Nc2ccc3nc(N4CCN(C)CC4)cc(C)c3c2)cc(OCC)c1OCC`, with 850 nM.
Turning to `COc1cc(Nc2nccc(N3CCC(NC(=O)C(C)c4ccc(Cl)cc4)C3)n2)cc(OC)c1OC` (stereo not drawn), the IC50 came out at 760 nM. The IC50 values of the last two compounds are within 1.5-fold of each other.
Compound `Cc1nc2ccccn2c1C1(O)C(=O)Nc2c(Cl)cc(Cl)cc21` (stereo not drawn) gave an IC50 of 1590 nM.
Then `CCOC(=O)c1c(NC(=O)c2ccccc2)sc2c(O)c(CNC3CCCCC3)ccc12`, with 750 nM; and `Cc1cccc(S(=O)(=O)Nc2cccc(CCN3CCC(N4CCCCC4)CC3)c2)c1`, with 1330 nM.

Values taken from PubChem BioAssay AID2305 (GlaxoSmithKline (GSK), 2010).
